ChEMBL document CHEMBL3879914, “Inhibitors of central nervous system vasoactive inhibitory peptide receptor 2” (2014)
The source made the active and inactive calls. The rule behind the calls is not given here.

Assays:
[1] = biological target: T1, Vasoactive intestinal polypeptide receptor 2 (Homo sapiens, UniProt P41587); experiment: (§1) Antagonist activity at recombinant human N-terminal signal peptide/FLAG epitope-tagged Rluc8-fused VIPR2 expressed in HEK293 cells assessed as inhibition of VIP-induced human mVenus-beta-arrestin2 binding preincubated for 5 mins with luciferin, coelenterazine H followed by VIP addition measured after 5 mins by BRET assay; type: cell-based
T1 sequence (P41587 whole entry): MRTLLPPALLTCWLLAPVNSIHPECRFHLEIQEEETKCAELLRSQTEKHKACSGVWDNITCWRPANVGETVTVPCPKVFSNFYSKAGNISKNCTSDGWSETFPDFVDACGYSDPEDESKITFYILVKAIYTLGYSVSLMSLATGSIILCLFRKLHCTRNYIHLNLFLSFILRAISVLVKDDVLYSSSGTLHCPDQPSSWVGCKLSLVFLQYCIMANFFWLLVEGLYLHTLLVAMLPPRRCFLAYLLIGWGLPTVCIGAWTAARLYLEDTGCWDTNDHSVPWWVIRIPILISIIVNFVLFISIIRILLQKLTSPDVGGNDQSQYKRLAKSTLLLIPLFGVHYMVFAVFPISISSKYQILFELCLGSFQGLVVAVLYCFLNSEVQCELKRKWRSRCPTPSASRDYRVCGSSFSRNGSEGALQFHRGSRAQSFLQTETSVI

[2] = biological target: T2, Vasoactive intestinal polypeptide receptor 2 (Homo sapiens) (UniProt P41587); experiment: as §1, with “binding at 0.5 uM” for “binding”, “assay relative to control” for “assay”; type: cell-based
T2 sequence (whole entry): T1 sequence (P41587 whole entry)

[3] = biological target: T2, Vasoactive intestinal polypeptide receptor 2 (Homo sapiens); experiment: as §1, with “binding at 1 uM” for “binding”, “assay relative to control” for “assay”; type: cell-based
[4] = biological target: T2, Vasoactive intestinal polypeptide receptor 2 (Homo sapiens); experiment: (§2) Antagonist activity at recombinant human N-terminal signal peptide/FLAG epitope-tagged VIPR2 expressed in HEK293 cells co-expressing CAMYEL assessed as inhibition of VIP-induced cAMP accumulation at 0.5 uM preincubated for 5 mins with luciferin, coelenterazine H followed by VIP addition measured after 5 mins by BRET assay relative to control; type: functional, cell-based
[5] = biological target: T2, Vasoactive intestinal polypeptide receptor 2 (Homo sapiens); experiment: as §2, with “1” for “0.5”; type: functional, cell-based
[6] = biological target: T2, Vasoactive intestinal polypeptide receptor 2 (Homo sapiens); experiment: as §2, with “5” for “0.5”; type: functional, cell-based
[7] = biological target: T2, Vasoactive intestinal polypeptide receptor 2 (Homo sapiens); experiment: as §1, with “binding at 5 uM” for “binding”, “assay relative to control” for “assay”; type: cell-based
[8] = biological target: T2, Vasoactive intestinal polypeptide receptor 2 (Homo sapiens); experiment: as §2, with “[…]” for “HEK293”, “accumulation” for “accumulation at 0.5 uM”, “assay” for “assay relative to control”; type: functional, cell-based
[9] = biological target: T1, Vasoactive intestinal polypeptide receptor 2; experiment: Antagonist activity at human VIPR2 expressed in HEK293 cells assessed as inhibition of VIP-induced cAMP accumulation incubated for 30 mins by HTRF assay; type: functional, cell-based
[10] = biological target: T1, Vasoactive intestinal polypeptide receptor 2; experiment: Antagonist activity at human VIPR2 expressed in HEK293 cells assessed as inhibition of VIP-induced beta-arrestin 2 binding incubated for 2 hrs by beta-galactosidase assay; type: cell-based

| SMILES | IC50 [1] [µM] | inhibition [2] [%] | inhibition [3] [%] | inhibition [4] [%] | inhibition [5] [%] | inhibition [6] [%] | inhibition [7] [%] | inhibition [8] | IC50 [9] [µM] | IC50 [10] [µM] |
| --- | --- | --- | --- | --- | --- | --- | --- | --- | --- | --- |
| CO[C@@H]1Cc2ccccc2[C@@H]1NC(=O)[C@H](Cc1ccccc1)C[C@H](O)CNS(=O)(=O)c1ccc(Cl)cc1 | 4 | 13.3 |  |  |  |  |  |  |  |  |
| CO[C@@H]1Cc2ccccc2[C@@H]1NC(=O)[C@H](Cc1ccccc1)C[C@H](O)CNS(=O)(=O)c1ccc(C(C)=O)cc1 | 5 | 76.2 |  |  |  |  |  |  |  |  |
| CO[C@H]1Cc2ccccc2[C@@H]1NC(=O)[C@H](Cc1ccccc1)C[C@H](O)CNS(=O)(=O)c1ccc2c(c1)OCCO2 | 6 | 28.1 |  |  |  |  |  |  |  |  |
| CCCCNC(=O)[C@@H](Cc1ccccc1)C[C@H](O)CNS(=O)(=O)c1ccc([N+](=O)[O-])cc1 | 1800 | 13.4 to 26.8 | 20.4 | -1.5 | 0.6 | 6.2 | 20.7 |  |  |  |
| O=C(N[C@H]1c2ccccc2C[C@H]1O)[C@H](Cc1ccccc1)C[C@H](O)CNS(=O)(=O)c1ccc(Cl)cc1 | 0.28 to 2.02 |  |  |  |  |  |  |  |  |  |
| CCc1ccc(S(=O)(=O)NC[C@@H](O)C[C@@H](Cc2ccccc2)C(=O)N[C@H]2c3ccccc3C[C@H]2O)cc1 | 1.13 to 45.8 |  |  |  |  |  |  |  |  |  |
| CC(=O)c1ccc(S(=O)(=O)NC[C@@H](O)C[C@@H](Cc2ccccc2)C(=O)N[C@H]2c3ccccc3C[C@H]2O)cc1 |  | 58.3 to 92.3 | 78 | 38.6 | 61.1 | 96 | 88.7 | Active |  |  |
| O=C(N[C@H]1c2ccccc2C[C@H]1O)[C@H](Cc1ccccc1)C[C@H](O)CNS(=O)(=O)c1ccc([N+](=O)[O-])cc1 |  | 2.6 to 84.5 | -2.6 to 74.6 | 38.7 to 74.3 | 70.9 to 86.1 | 97.8 to 100 | 29.3 to 92 |  | 3.8 | 2.3 |
| O=C(NCc1ccccc1)[C@@H](Cc1ccccc1)C[C@H](O)CNS(=O)(=O)c1ccc([N+](=O)[O-])cc1 |  | -0.3 to 6.05 | -4.1 | -1 | 1.5 | 4.9 | 7.2 |  |  |  |
| Cc1ccc(S(=O)(=O)NC[C@@H](O)C[C@@H](Cc2ccccc2)C(=O)N[C@H]2c3ccccc3C[C@H]2O)cc1 | 1.18 to 1.98 | 62.3 to 94.1 | 80.4 | 42.2 | 63.5 | 98.2 | 90 |  |  |  |
| C#CCNC(=O)[C@H](Cc1ccccc1)C[C@H](O)CNS(=O)(=O)c1ccc([N+](=O)[O-])cc1 |  | 3.55 to 9.4 | 7.2 | 5.4 | 7.8 | 7.3 | -0.2 |  |  |  |
| O=C(NC1CCCC1)c1ccc(S(=O)(=O)NC[C@@H](O)C[C@@H](Cc2ccccc2)C(=O)N[C@H]2c3ccccc3C[C@H]2O)cc1 |  | 3.9 to 15.9 | 0.5 | 15.2 | 19.6 | 31.8 | 0.1 |  |  |  |
| O=C(N[C@H]1c2ccccc2C[C@H]1O)[C@H](Cc1ccccc1)C[C@H](O)CNS(=O)(=O)c1ccc(C(=O)N2CCOCC2)cc1 |  | 4.1 to 10.1 | 1.8 | -1.4 | 0.1 | 25.5 | -5.4 |  |  |  |
| O=C(NC[C@@H](O)C[C@@H](Cc1ccccc1)C(=O)N[C@H]1c2ccccc2C[C@H]1O)c1ccc2ccccc2c1 |  | -2.9 to 16.6 | 11.1 | 13.2 | 16.3 | 23.5 | 9.7 |  |  |  |
| CC(C)C(=O)Nc1ccc(S(=O)(=O)NC[C@@H](O)C[C@@H](Cc2ccccc2)C(=O)N[C@H]2c3ccccc3C[C@H]2O)cc1 |  | 4.6 to 5.3 | 5.1 | 1 | 6.9 | 16.7 | -7.5 |  |  |  |
| O=C(N[C@H]1c2ccccc2C[C@H]1O)[C@H](Cc1ccccc1)C[C@H](O)CNS(=O)(=O)c1ccc2c(c1)OCCO2 | 0.206 to 33.7 |  |  |  |  |  |  |  |  |  |
